Measurements as given in patent US6380254B2, “Method and composition for treating and preventing pathogenic effects caused by intracellular calcium overload” (Leigh Biotechnology, Inc., priority 1994, dated 2002).
Where two headings read alike, the source gives them in different places.

Columns and labels:
Assay type in all cases: cell-based, rat
Hepatocytes [1] = assay: Viability of post-anaerobic hepatocytes (fraction of cytosolic lactate dehydrogenase retained intracellularly); conditions: for viability at 5000 µM: Rattus norvegicus, Hepatocyte, 1.5 h, read-out: SURVIVING FRACTION; for MEAN SURVIVING FRACTION: glycine 20 mM, mixture less than 5 mM total, 90 min anaerobic then 90 minute aerobic incubation, untreated .384
Protocol: Both perfusates were introduced in situ at a rate of 20 ml/minute. The liver was dispersed by several passages through a glass pipette tip (4 mm aperture), subsequently filtered through two layers of a 250 micron Nylon mesh, and diluted in 50 ml of a chilled suspension medium of the BSS containing 1.3 mM CaCl2, 1.3 mM MgCl2, 20 mM glucose, and 5 mM pyruvate. The crude suspension was purified by differential centrifugation (100 g per 2 minutes).
The purified cell suspension, consisting primarily of liver parenchymal cells, was washed three times with the cold suspension medium. The final pellet was resuspended at a concentration of 20 mg cell protein (Biuret assay) per milliliter of suspension medium and incubated aerobically for one hour at 24° C. in a 50 ml polypropylene centrifuge tube mounted horizontally on the rocker tray of a shaking water bath (30 strokes per minute). At the end of this incubation period, hepatocyte viability was assessed by trypan blue exclusion.
Samples of the purified cell suspension were then transferred to two 50 ml polypropylene test tubes. One of these tubes was purged of oxygen by flushing the gas phase with argon and then permitting the cells to consume the residual oxygen in the medium. […] This anaerobic suspension was maintained in a 37° C.. water bath without agitation.
The other test tube was supplemented with oxygen by flushing the gas phase with pure oxygen. Diffusion of oxygen from the gas phase to this aerobic reference cell suspension was encouraged by orienting the tube in such a fashion as to maximize surface area and by gently agitating the suspension in the 37° C.. water bath. After 90 minutes, both suspension were removed from the water bath and the cells were washed two times with an ice cold suspension buffer and then resuspended in a warm, aerated suspension medium to a concentration of 10 mg cell protein.
A one milliliter sample of the anaerobic suspension was added to 4 ml of warm, aerated suspension medium containing either no additives (for the untreated cells), or a single amino carboxylic acid at a concentration of 5 mM. Cell viability was assessed in each test population at the end of a subsequent 90 minute aerobic incubation at 37° C. by measuring the fraction of cytosolic lactate dehydrogenase activity retained intracellularly.
Cell viability was assessed as the fraction of the cytosolic enzyme, lactate dehydrogenase, retained intracellularly following a 90 minute aerobic incubation. A minimum of four observations were made and recorded.
(§1) Hepatocytes were incubated anaerobically for 90 minutes, then washed and resuspended in fresh medium containing either no additives (untreated cells), trifluoperazine (25 μM), glycine (20 mM or 150 mg per 100 ml), or a mixture of amino carboxylic acids (total amino carboxylic acid concentration was less than 5 mM or 65 mg per 100 ml). Cell viability was assessed as the fraction of lactate dehydrogenase retained intracellularly following a 90 minute aerobic incubation. A minimum of four observations were made and recorded.
as §1, with “additives (for the untreated” for “additives (untreated”, “cells), neomycin sulfate (10 mM),” for “cells), trifluoperazine (25 μM),”, “or the” for “or a”

glycogen phosphorylase a = assay: Intracellular calcium activity in post-anaerobic hepatocytes, expressed as glycogen phosphorylase a activity; conditions: mmols of PO^−3 liberated from glucose-1-phosphate per 1 million viable post-anaerobic cells; chlorpromazine 25 μM, glycine 20 mM, mixture less than 5 mM total; untreated 165.5
Protocol: Kinase is stimulated by increased intracellular calcium concentration via calmodulin. […] Thera., Vol. 238, pp. 186-191, 1986. […] Cell viability was assessed as the fraction of lactate dehydrogenase retained intracellularly following a 90 minute aerobic incubation. Intracellular calcium activity was assessed in these post-anaerobic cells by the method described in Long and Moore, supra, and expressed in terms of glycogen phosphorylase a activity. […] A minimum of four observations were made and recorded.

Hepatocytes [2] = assay: Viability of post-anaerobic hepatocytes (fraction of cytosolic lactate dehydrogenase retained intracellularly); conditions: glycine 20 mM, mixture less than 5 mM total, 90 min anaerobic then 90 minute aerobic incubation
[3] = single amino carboxylic acid at 5 mM, 90 min anaerobic, then 90 minute aerobic incubation at 37° C., untreated 0.25
[4] = Table 4, neomycin sulfate 10 mM
[5] = Table 2, chlorpromazine 25 μM, mean with standard deviation, untreated .342
[6] = Table 5, alpha tocopherol succinate 100 mg per 100 ml, untreated .352
[7] = Table 6, desferrioxamine 25 μM, untreated .363

`N[C@@H](Cc1c[nH]cn1)C(=O)O` [Histidine, histidine] showed a viability at 5000 µM (Hepatocytes [1]; [3]) of 50%.

`N[C@@H](Cc1ccc(O)cc1)C(=O)O` [Tyrosine, tyrosine, reference compound] showed a viability at 5000 µM (Hepatocytes [1]; [3]) of 31%.

Work on `CC[C@H](C)[C@H](N)C(=O)O` [Isoleucine, isoleucine, reference compound] yielded a viability at 5000 µM (Hepatocytes [1]; [3]) of 29%.

For `O=C(O)[C@@H]1CCCN1` [Proline, proline], the viability at 5000 µM (Hepatocytes [1]; [3]) was 49%.

In the case of `CN1CCN(CCCN2c3ccccc3Sc3ccc(C(F)(F)F)cc32)CC1` [Trifluoperazine, trifluoperazine, reference compound], the “MEAN SURVIVING FRACTION” value (Hepatocytes [1]; Table 3, trifluoperazine 25 μM) is reported as “.550 ± .061”.

`NC(=O)C[C@H](N)C(=O)O` [Asparagine, asparagine] was tested, and the viability at 5000 µM (Hepatocytes [1]; [3]) was 54%.

With neomycin sulfate [reference compound] the “MEAN SURVIVING FRACTION” value (Hepatocytes [1]; [4]) was “.566 ± .043”.

`CC(C)[C@H](N)C(=O)O` [Valine, valine, reference compound] gave a viability at 5000 µM (Hepatocytes [1]; [3]) of 28%.

In the case of `NCC(=O)O` [Glycine, glycine], the “GLYCOGEN PHOSPHORYLASE A ACTIVITY” value (glycogen phosphorylase a) is reported as 124.8 ± 22.9 mmols, the viability at 5000 µM (Hepatocytes [1]; [3]) is reported as 53% and the “MEAN SURVIVING FRACTION” value (Hepatocytes [1]; Table 3, trifluoperazine 25 μM) is reported as “.739 ± .014”. The “MEAN SURVIVING FRACTION” value (Hepatocytes [1]; [4]) was “.694 ± .033”, the “MEAN SURVIVING FRACTION” value (Hepatocytes [2]; [5]) was “.698 ± .065” and the “MEAN SURVIVING FRACTION” value (Hepatocytes [2]; [6]) was “.749 ± .020”. For the same compound, the “MEAN SURVIVING FRACTION” value (Hepatocytes [2]; [7]) was “.696 ± .038”.

For `N[C@@H](CCC(=O)O)C(=O)O` [Glutamic acid, glutamic acid], the viability at 5000 µM (Hepatocytes [1]) was 52%.

With `CC(=O)N(O)CCCCCNC(=O)CCC(=O)N(O)CCCCCNC(=O)CCC(=O)N(O)CCCCCN` [Desferrioxamine, desferrioxamine, reference compound] the “MEAN SURVIVING FRACTION” value (Hepatocytes [2]; [7]) was “.393 ± .029”.

Compound `NC(=O)CC[C@H](N)C(=O)O` [Glutamine, glutamine] has a viability at 5000 µM (Hepatocytes [1]; [3]) of 52%.

In the case of `N[C@@H](CO)C(=O)O` [Serine, serine], the viability at 5000 µM (Hepatocytes [1]; [3]) is reported as 40%.

In the case of `N=C(N)NCCC[C@H](N)C(=O)O` [Arginine, arginine], the viability at 5000 µM (Hepatocytes [1]) is reported as 51%.

In the case of `CC(C)C[C@H](N)C(=O)O` [Leucine, leucine, reference compound], the viability at 5000 µM (Hepatocytes [1]; [3]) is reported as 32%.

In the case of `Cc1c(C)c2c(c(C)c1O)CC[C@@](C)(CCC[C@H](C)CCC[C@H](C)CCCC(C)C)O2` [alpha-tocopherol, reference compound], the “MEAN SURVIVING FRACTION” value (Hepatocytes [2]; [6]) is reported as “.421 ± .087”.

For `CN(C)CCCN1c2ccccc2Sc2ccc(Cl)cc21` [Chlorpromazine, chlorpromazine, reference compound], the “MEAN SURVIVING FRACTION” value (Hepatocytes [2]; [5]) was “.567 ± .055”.

`C[C@H](N)C(=O)O` [Alanine, alanine] gave a viability at 5000 µM (Hepatocytes [1]; [3]) of 51%.
